Reference: US20200024278A1, “COMPOSITION COMPRISING ANTIBIOTIC COMPOUND AND AN HETEROCYCLIC COMPOUND AND THEIR USE IN PREVENTING OR TREATING BACTERIAL INFECTIONS” (MUTABILIS, priority 2016, published 2020)
Like-named read-outs stand apart in the source and are kept apart here.

Assays:
ECO 190317 = assay: MIC, broth microdilution (CLSI), substance alone or ATB combined with compound at 4 or 8 μg/mL; assay type: cell-based, E. coli; conditions: Escherichia coli, ECO 190317
In short: (§1)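 CLSI M7-A7 broth microdilution. ca-MHB, 5·10^5 CFU/mL log-phase cells, 16-20 h, 35° C, ambient air. Fosfomycin wells + 25 μg/ml glucose-6-phosphate. Visual MIC read.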

ECO UFR39 = assay: as above; assay type: cell-based, E. coli; conditions: Escherichia coli, ECO UFR39
In short: as §1

KPN 6299 = assay: as above; assay type: cell-based, K. pneumoniae; conditions: Klebsiella pneumoniae, antibiotic alone, read-out: MIC ATB alone
In short: as §1

KPN BAA-1898 = assay: as above; assay type: cell-based, K. pneumoniae; conditions: Klebsiella pneumoniae, BAA1898, KPN BAA-1898
In short: as §1

KPN UFR42 = assay: as above; assay type: cell-based, K. pneumoniae; conditions: Klebsiella pneumoniae; antibiotic alone; KPN UFR42; read-out: MIC ATB alone
In short: as §1

KPN UFR68 = assay: as above; assay type: cell-based, K. pneumoniae; conditions: Klebsiella pneumoniae, substance alone
In short: as §1

ECL P99 = assay: as above; assay type: cell-based, E. cloacae; conditions: Enterobacter cloacae, ECL P99
In short: as §1

PAE 105250 = assay: as above; assay type: cell-based, P. aeruginosa; conditions: Pseudomonas aeruginosa; antibiotic alone; PAE 105250; read-out: MIC ATB alone
In short: as §1

PAE UFR48 [1] = assay: as above; assay type: cell-based, P. aeruginosa; conditions: Pseudomonas aeruginosa, antibiotic alone; PAE UFR48; read-out: MIC ATB alone
In short: as §1

PAE UFR90 [2] = assay: as above; assay type: cell-based, P. aeruginosa; conditions: PAE UFR90
In short: as §1

SAU 29213 = assay: as above; assay type: cell-based, S. aureus; conditions: Staphylococcus aureus
In short: as §1

SPN 49619 = assay: as above; assay type: cell-based, S. pneumoniae; conditions: Streptococcus pneumoniae, SPN 49619
In short: as §1

PAE 27853 = assay type: cell-based, P. aeruginosa; conditions: tntbc: Too numerous to be counted
Experimental: (§2) Method 4: Determination of the Spontaneous Mutation Frequency of the Compounds Alone and Combined with Antibiotics.
(§3) Bacterial isolates (Table 3) were grown overnight at 35° C. on TSA plates (Becton-Dickinson and Company) in ambient air. After 24 h of incubation, isolated bacterial colonies were added to cation-adjusted Mueller-Hinton broth (ca-MHB; Becton-Dickinson and Company) and cultured for approximately 6 h at 35° C. The pre-culture was stopped once bacteria have reached an OD600 nm of 0.5 for 200 μL. The bacterial suspension was centrifuged at 4000 rpm for 20 min. The supernatant was then discarded and the bacterial pellet was dissolved in ca-MHB to obtain 10^9 to 10^10 CFU/mL. Assays including Fosfomycin were supplemented with 25 μg/ml of Glucose-6-phosphate. 100 μL of the adjusted bacterial suspension were spread on agar plates containing different concentrations of the compounds of the present invention alone or combined with an antibacterial (Table 1). The plates were incubated for 24-48 h at 35° C. in ambient air. CFU were numerated on each agar plate containing compound. The number of resistant colonies obtained was divided by the starting inoculum to give the frequency of spontaneous resistance for a given incubation time (24 and 48 h).

PAE UFR48 [3] = assay type: cell-based, P. aeruginosa; conditions: tntbc: Too numerous to be counted
Experimental: as §2, §3

PAE UFR90 [4] = assay type: cell-based, P. aeruginosa; conditions: tntbc: Too numerous to be counted
Experimental: as §2, §3

[5] = antibiotic alone, read-out: MIC ATB alone

C[C@@H]1O[C@@H]1P(=O)(O)O [FOS, Fosfomycin, reference compound]
MIC (ECO 190317; [5]): 0.5 µg/mL | MIC (ECO 190317; substance alone, read-out: MIC): 0.5 µg/mL | MIC (ECO UFR39; [5]): 4 µg/mL | MIC (ECO UFR39; substance alone, read-out: MIC): 4 µg/mL | MIC (KPN 6299): > 128 µg/mL | MIC (KPN BAA-1898; [5]): 64 µg/mL | MIC (KPN BAA-1898; substance alone, read-out: MIC): 64 µg/mL | MIC (KPN UFR42): 128 µg/mL | MIC (KPN UFR68): 32 µg/mL | MIC (ECL P99; [5]): > 1020 µg/mL | MIC (ECL P99; substance alone, read-out: MIC): > 1020 µg/mL | MIC (PAE 105250): 256 µg/mL | MIC (PAE UFR48 [1]): 16 µg/mL | MIC (PAE UFR90 [2]; Pseudomonas aeruginosa, antibiotic alone, read-out: MIC ATB alone): 8 µg/mL | MIC (PAE UFR90 [2]; Pseudomonas aeruginosa, substance alone, read-out: MIC): 16 µg/mL | MIC (PAE UFR90 [2]; substance alone): 8 µg/mL | MIC (SAU 29213; antibiotic alone, SAU 29213, read-out: MIC ATB alone): 2 µg/mL | MIC (SAU 29213; substance alone, SAU 29213 (MSSA 29213), read-out: MIC): 2 µg/mL | MIC (SPN 49619; [5]): 32 µg/mL | MIC (SPN 49619; substance alone, read-out: MIC): 32 µg/mL | Frequency of spontaneous resistance (PAE 27853; single agent at 4.MIC): 1.2E−06 | Frequency of spontaneous resistance (PAE 27853; single agent at 8.MIC): 1.4E−06 | Frequency of spontaneous resistance (PAE UFR48 [3]; single agent at 4.MIC): 1.1E−06 | Frequency of spontaneous resistance (PAE UFR48 [3]; single agent at 8.MIC): 1.1E−06 | Frequency of spontaneous resistance (PAE UFR90 [4]; single agent at 4.MIC): 3.0E−07 | Frequency of spontaneous resistance (PAE UFR90 [4]; single agent at 8.MIC): 2.0E−07
